Patent US20260306633A1, “A COMBINATION THERAPY FOR CANCER TREATMENT” (Purdue Research Foundation, priority 2023, published 2026)
Read-outs that look alike come from different tables or passages of the source.

Tested on: TNBC BT-549 cells
Experiment: Cell survival / cell inhibition (MTT cell cytotoxicity assay) after 24 h treatment with photosensitizer and/or chemotherapeutic agent, dark or light-irradiated
Type: cell-based, human
Settings: for cell inhibition (%), combination with cisplatin / cell inhibition (%), combination with doxorubicin / cell inhibition (%), combination with fluorouracil / cell inhibition (%), combination with methotrexate / cell inhibition (%), combination with paclitaxel: light 0.96 J cm−2; for cell inhibition (%), combination with doxorubicin: PS 100 nM + doxorubicin 500 nM; for cell inhibition (%), combination with methotrexate: PS 100 nM + methotrexate 500 nM; for cytotoxicity in the absence of light, PS alone: PS 500 nM; for viability at 1 µM / viability at 0.1 µM: methotrexate; for viability at 1 µM: high end of 100-1000 nM, read-out: cell survival, drug only (end of decrease); for viability at 0.1 µM: low end of 100-1000 nM, read-out: cell survival, drug only (start of decrease)
Method: Human mammary epithelial carcinoma cell lines purchased from the American Type Culture Collection BT-549 (ATCC HTB-122) were cultured according to ATCC protocol. BT-549 cells were grown in RPMI 1640 containing 0.023 IU/mL insulin and supplemented with 10% fetal bovine serum (FBS). Cells were grown to 80-90% confluence in 75-cm^2 culture flasks (Corning) for 4-5 days in a humidified incubator (Fisher Scientific Isotemp) with 5% CO2 at 37° C. During the incubation period, growth media was changed once with fresh pre-warmed media (pH 7.2). To harvest the cells, old growth media was aspirated out, and 3 mL 0.25% trypsin solution (Thermo Sci Hyclone) were added. The cells were incubated for 5 minutes, and the cell pellet after centrifugation was resuspended in 3 mL media, broken up gently, then 1 mL of suspended cells was transferred into a new T75 cell culture flask containing pre-warmed media (20 mL) for further culturing.
Cells were grown to confluence in a 96-well plate (9×10^3 cells/well) and co-treated for 24 hours with synthesized photosensitizers (PSs) and chemotherapeutic agents of varying concentrations ranging from 5 nM to 50 μM) in growth media from a stock solution of 10 mM in DMSO (dimethyl sulfoxide, Fisher). After 24-hour treatment, old growth media containing the PSs or compounds were aspirated out and replaced with fresh media. Plates were then positioned below a non-coherent LumaCare LC-122 650 nm light source for 1 minute at an energy fluence rate of 0.96 J/cm^2 and a power of 16 mW/cm^2 (measured using a Newport optical power meter Model 840). Unirradiated cells served as control samples. The following day, cells were washed with pre-warmed PBS, and 11MTT (3-[4,5-dimethyl-thiazol-2-yl]-2.5-diphenyltetrazolium bromide, Sigma, 0.3 mg/mL) in PBS was added to each well. Samples were allowed to incubate for additional 2 hours, after which dark blue crystals formed. DMSO was added to each well and plates were shaken at room temperature for 1 hour to dissolve the purplish-blue formazan crystals. Absorbance values at 570 nm were measured on a microplate reader (BioRad 550). Cell survival was calculated based on the absorbance of the untreated cells alone (as control) and were directly proportional to the number of viable cells in culture. Results were reported as the mean±SD of triplicate measurements.
The unmetallated PS and the indium complexes were used.
Light dose corresponds to an energy fluence rate of 0.96 J/cm^2 used.
Power of 16 mW/cm^2 used.
Cell inhibition in TNBC cells is based on the cell survival (MTT) assay of the binary therapy, blending the effect of PDT and chemotherapeutic agents. […] MePheo serves as a control compound. TNBC cells were then exposed to light after binary treatment for 24 hours.

[1] = PS 100 nM + cisplatin 25 μM, 24 h
[2] = PS 100 nM + fluorouracil 25 μM, 24 h
[3] = PS 100 nM + paclitaxel 50 nM, 24 h
[4] = Homo sapiens, BT-549, 24 h, dark
[5] = Homo sapiens, BT-549, 24 h, light

C=Cc1c(C)c2cc3nc(c(CC(=O)OC)c4[nH]c(cc5nc(cc1[nH]2)C(C)=C5CC)c(C)c4C(=O)NCCCCCCNC(=O)c1ccc(C(=C)c2cc4c(cc2C)C(C)(C)CCC4(C)C)cc1)[C@@H](CCC(=O)OC)[C@@H]3C [CBX, chlorin bexarotene conjugate]
cell inhibition (%), combination with cisplatin [1]: 0%
cell inhibition (%), combination with doxorubicin (24 h): 30%
cell inhibition (%), combination with fluorouracil [2]: 6%
cell inhibition (%), combination with methotrexate (24 h): 42%
cell inhibition (%), combination with paclitaxel [3]: 48%
cytotoxicity in the absence of light, PS alone (dark): No cytotoxicity

C=Cc1c(C)c2cc3nc(c(CC(=O)OC)c4[nH]c(cc5nc(cc1[nH]2)C(C)=C5CC)c(C)c4C(=O)NCCCCCCNC(=O)CCCC[C@@H]1CCSS1)[C@@H](CCC(=O)OC)[C@@H]3C [CLA, chlorin lipoic acid conjugate]
cell inhibition (%), combination with cisplatin [1]: 65%
effect of added cisplatin compared to cisplatin-treated cell viability (PS 100 nM + cisplatin 25 μM, light): reduced cell survival
cell survival, co-treatment with cisplatin upon light (PS 100 nM + cisplatin 25 μM, light, 1440 min): 35%
cell inhibition (%), combination with doxorubicin (24 h): 33%
cell survival, co-treatment with fluorouracil in the dark (PS 100 nM + fluorouracil 25 μM, 24 h, dark): 84%
cell inhibition (%), combination with fluorouracil [2]: 35%
cell inhibition (%), combination with methotrexate (24 h): 43%
cell survival, co-treatment with paclitaxel in the dark (PS 100 nM + paclitaxel 50 nM, 24 h, dark): 59%
cell inhibition (%), combination with paclitaxel [3]: 45%
cell survival, PS alone (PS 100 nM, light 0.96 J/cm^2, 1440 min): 90%
cytotoxicity in the absence of light, PS alone (dark): No cytotoxicity
combination therapy vs monotherapy (cisplatin) (PS + cisplatin, light): better photodynamic effect when co-treated with cisplatin than PS-treatment alone

CN(Cc1cnc2nc(N)nc(N)c2n1)c1ccc(C(=O)N[C@@H](CCC(=O)O)C(=O)O)cc1 [methotrexate, reference compound]
viability at 0.5 µM (Homo sapiens, BT-549, 24 h, methotrexate 500 nM, dark, read-out: cell survival, drug only): 78%
viability at 1 µM [4]: 66%
viability at 0.1 µM [4]: 87%
viability at 1 µM [5]: 66%
viability at 0.1 µM [5]: 93%
average increase in cell survival upon light irradiation compared to unirradiated cells, drug only (drug alone, light vs dark): 6%
